Assay results published in PubChem BioAssay AID330 (DTP/NCI, 2004).
Several values for one entry are separate records, joined by “and”; a condition that tells them apart may be missing. Equal values may be shown once. Toxic doses and inconclusive results are not listed.

Test system: P388 leukemia ip, CD2F1 mice, survival T/C
Assay: NCI In Vivo Anticancer Drug Screen. Data for tumor model P388 Leukemia (intraperitoneal) in CD2F1 (CDF1) mice
Conditions: endpoint: median survival time, higher = longer survival
Procedure, shortened: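 Mice carrying the transplanted tumor received test compound or vehicle. Survival was recorded in each group, and the value is the treated-group measurement divided by that of the vehicle-treated control group.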

[1] = dose: 50.0 mg/kg/injection, schedule: Q01DX005 (ip), vehicle: saline with Tween-80
[2] = dose: 100.0 mg/kg/injection, schedule: Q01DX005 (ip), vehicle: saline with Tween-80
[3] = dose: 200.0 mg/kg/injection, schedule: Q01DX005 (ip), vehicle: saline with Tween-80
[4] = dose: 50.0 mg/kg/injection, schedule: Q01DX009 (ip), vehicle: saline with Tween-80
[5] = dose: 100.0 mg/kg/injection, schedule: Q01DX009 (ip), vehicle: saline with Tween-80
[6] = dose: 200.0 mg/kg/injection, schedule: Q01DX009 (ip), vehicle: saline with Tween-80
[7] = dose: 50.0 mg/kg/injection, schedule: Q01DX009 (ip), vehicle: saline
[8] = dose: 25.0 mg/kg/injection, schedule: Q01DX005 (ip), vehicle: saline with Tween-80
[9] = dose: 100.0 mg/kg/injection, schedule: Q01DX009 (ip), vehicle: saline
[10] = dose: 200.0 mg/kg/injection, schedule: Q01DX009 (ip), vehicle: saline
[11] = dose: 50.0 mg/kg/injection, schedule: Q01DX005 (ip), vehicle: Klucel (hydroxypropylcellulose) (HPC)
[12] = dose: 100.0 mg/kg/injection, schedule: Q01DX005 (ip), vehicle: Klucel (hydroxypropylcellulose) (HPC)
[13] = dose: 200.0 mg/kg/injection, schedule: Q01DX005 (ip), vehicle: Klucel (hydroxypropylcellulose) (HPC)

## OCC(O)C1OC(c2ccco2)OC(CO)C1O (stereo not drawn)
[1]
  T/C: 102 % of control
[2]
  T/C: 105 % of control
[3]
  T/C: 105 % of control

## COc1ccccc1N=Nc1c(O)n(-c2ccccc2Cl)c(=S)n(-c2ccccc2OC)c1=O
dose: 50.0 mg/kg/injection, schedule: Q01DX001 (ip), vehicle: Klucel (hydroxypropylcellulose) (HPC)
  T/C: 102 % of control
dose: 100.0 mg/kg/injection, schedule: Q01DX001 (ip), vehicle: Klucel (hydroxypropylcellulose) (HPC)
  T/C: 102 % of control
dose: 200.0 mg/kg/injection, schedule: Q01DX001 (ip), vehicle: Klucel (hydroxypropylcellulose) (HPC)
  T/C: 101 % of control

## N#CC(CN1CCOCC1)CN1CCOCC1
[4]
  T/C: 95 % of control
[5]
  T/C: 101 % of control
[6]
  T/C: 96 % of control

## O=C1OC(OCC#CCOC2OC(=O)C(Cl)=C2Cl)C(Cl)=C1Cl (stereo not drawn)
dose: 15.0 mg/kg/injection, schedule: Q01DX005 (ip), vehicle: saline with Tween-80
  T/C: 112 % of control
dose: 30.0 mg/kg/injection, schedule: Q01DX005 (ip), vehicle: saline with Tween-80
  T/C: 105 % of control
dose: 60.0 mg/kg/injection, schedule: Q01DX005 (ip), vehicle: saline with Tween-80
  T/C: 115 % of control and 93 % of control

## Cc1ccc2c(c1)C(=O)c1ccccc1/C2=C1\c2ccccc2C(=O)c2cc(C)ccc21
dose: 50.0 mg/kg/injection, schedule: Q01DX005 (ip), vehicle: Klucel + Tween-80
  T/C: 105 % of control
dose: 100.0 mg/kg/injection, schedule: Q01DX005 (ip), vehicle: Klucel + Tween-80
  T/C: 89 % of control
dose: 200.0 mg/kg/injection, schedule: Q01DX005 (ip), vehicle: Klucel + Tween-80
  T/C: 89 % of control

## COC(=O)C1=C(C)NC(C)=C(C(=O)OC)C1c1cc2ccccc2nc1Cl
[1]
  T/C: 92 % of control
[2]
  T/C: 88 % of control
[3]
  T/C: 92 % of control

## C[N+]1(C)CCN(Cc2ccc3c(c2)CCc2ccccc2N3)CC1
dose: 3.75 mg/kg/injection, schedule: Q01DX005 (ip), vehicle: saline
  T/C: 104 % of control
dose: 7.5 mg/kg/injection, schedule: Q01DX005 (ip), vehicle: saline
  T/C: 96 % of control

## O=C(CCBr)N1CCN(C(=O)CCBr)CC1
dose: 2.5 mg/kg/injection, schedule: Q01DX009 (ip), vehicle: saline
  T/C: 100 % of control
dose: 5.0 mg/kg/injection, schedule: Q01DX009 (ip), vehicle: saline
  T/C: 104 % of control
dose: 5.0 mg/kg/injection, schedule: Q01DX010 (ip), vehicle: Klucel (hydroxypropylcellulose) (HPC)
  T/C: 108 % of control
dose: 10.0 mg/kg/injection, schedule: Q01DX009 (ip), vehicle: saline
  T/C: 112 % of control
dose: 10.0 mg/kg/injection, schedule: Q01DX010 (ip), vehicle: Klucel (hydroxypropylcellulose) (HPC)
  T/C: 120 % of control
dose: 20.0 mg/kg/injection, schedule: Q01DX009 (ip), vehicle: saline
  T/C: 112 % of control
dose: 40.0 mg/kg/injection, schedule: Q01DX009 (ip), vehicle: saline
  T/C: 169 % of control
dose: 40.0 mg/kg/injection, schedule: Q01DX010 (ip), vehicle: Klucel (hydroxypropylcellulose) (HPC)
  T/C: 171 % of control
dose: 80.0 mg/kg/injection, schedule: Q01DX009 (ip), vehicle: saline
  T/C: 110 % of control
dose: 80.0 mg/kg/injection, schedule: Q01DX010 (ip), vehicle: Klucel (hydroxypropylcellulose) (HPC)
  T/C: 91 % of control

## CCN(CC)CCNc1ccc(C)c2sc3c(N)cccc3c(=O)c12
[4]
  T/C: 100 % of control
[5]
  T/C: 113 % of control
[6]
  T/C: 123 % of control

## CC1CC2Oc3ccc(Cl)cc3C(=O)N2O1 (stereo not drawn)
dose: 7.5 mg/kg/injection, schedule: Q01DX009 (ip), vehicle: saline
  T/C: 115 % of control
dose: 15.0 mg/kg/injection, schedule: Q01DX009 (ip), vehicle: saline
  T/C: 113 % of control
dose: 30.0 mg/kg/injection, schedule: Q01DX009 (ip), vehicle: saline
  T/C: 104 % of control

## O=C(C1=Cc2ccccc2OC1)N1CCN(c2cccc(Cl)c2)CC1
dose: 100.0 mg/kg/injection, schedule: Q04DX003 (ip), vehicle: saline with Tween-80
  T/C: 98 % of control
dose: 200.0 mg/kg/injection, schedule: Q04DX003 (ip), vehicle: saline with Tween-80
  T/C: 102 % of control
dose: 400.0 mg/kg/injection, schedule: Q04DX003 (ip), vehicle: saline with Tween-80
  T/C: 93 % of control

## OC(C[n+]1ccccc1)c1ccccc1 (stereo not drawn)
dose: 6.25 mg/kg/injection, schedule: Q01DX009 (ip), vehicle: saline
  T/C: 105 % of control
dose: 12.5 mg/kg/injection, schedule: Q01DX009 (ip), vehicle: saline
  T/C: 100 % of control
dose: 25.0 mg/kg/injection, schedule: Q01DX009 (ip), vehicle: saline
  T/C: 109 % of control
[7]
  T/C: 100 % of control

## [CH3][Ge]([CH3])([CH3])[N]=S=[N][Ge]([CH3])([CH3])[CH3]
dose: 12.5 mg/kg/injection, schedule: Q01DX005 (ip), vehicle: saline with Tween-80
  T/C: 105 % of control
[8]
  T/C: 100 % of control
[1]
  T/C: 99 % of control and 100 % of control

## O=C(O)c1cc2c(cc1S(=O)(=O)O)C1C(C3C2C2(Cl)C(Cl)=C(Cl)C3(Cl)C2(Cl)Cl)C2(Cl)C(Cl)=C(Cl)C1(Cl)C2(Cl)Cl (stereo not drawn)
[7]
  T/C: 105 % of control
[9]
  T/C: 100 % of control
[10]
  T/C: 100 % of control

## CC1=NNC(=O)CC1C(O)c1ccccc1 (stereo not drawn)
dose: 60.0 mg/kg/injection, schedule: Q01DX005 (ip), vehicle: saline
  T/C: 114 % of control
dose: 120.0 mg/kg/injection, schedule: Q01DX005 (ip), vehicle: saline
  T/C: 101 % of control
dose: 240.0 mg/kg/injection, schedule: Q01DX005 (ip), vehicle: saline
  T/C: 107 % of control

## CC1C(=O)C(C)C(c2ccc([N+](=O)[O-])cc2)OC1c1ccccc1 (stereo not drawn)
dose: 50.0 mg/kg/injection, schedule: Q01DX001 (ip), vehicle: suspension in saline
  T/C: 96 % of control
dose: 100.0 mg/kg/injection, schedule: Q01DX001 (ip), vehicle: suspension in saline
  T/C: 100 % of control
dose: 200.0 mg/kg/injection, schedule: Q01DX001 (ip), vehicle: suspension in saline
  T/C: 102 % of control

## C=C1C(=O)O[C@H]2CCC[C@@]12C
dose: 100.0 mg/kg/injection, schedule: Q01DX001 (ip), vehicle: saline with Tween-80
  T/C: 103 % of control
dose: 200.0 mg/kg/injection, schedule: Q01DX001 (ip), vehicle: saline with Tween-80
  T/C: 106 % of control
dose: 400.0 mg/kg/injection, schedule: Q01DX001 (ip), vehicle: saline with Tween-80
  T/C: 113 % of control

## COC(=O)/C(C#N)=C/c1ccc2c(c1)OCO2
[11]
  T/C: 100 % of control
[12]
  T/C: 97 % of control
[13]
  T/C: 100 % of control

## C=CCOc1c(C=O)cccc1OC
[8]
  T/C: 101 % of control
[1]
  T/C: 100 % of control
[2]
  T/C: 108 % of control

## Nc1ccc(S(=O)(=O)F)cc1Cl
[7]
  T/C: 100 % of control
[9]
  T/C: 97 % of control
[10]
  T/C: 111 % of control

## COc1ccc(C=C2C=C(C(C)(C)C)C(=O)C(C(C)(C)C)=C2)cc1
dose: 50.0 mg/kg/injection, schedule: Q01DX005 (ip), vehicle: distilled water + alcohol
  T/C: 108 % of control
dose: 100.0 mg/kg/injection, schedule: Q01DX005 (ip), vehicle: distilled water + alcohol
  T/C: 96 % of control
dose: 200.0 mg/kg/injection, schedule: Q01DX005 (ip), vehicle: distilled water + alcohol
  T/C: 108 % of control

## CN1C(=O)C(N=O)C(=O)N(C)C1=S
dose: 6.25 mg/kg/injection, schedule: Q04DX002 (ip), vehicle: saline with Tween-80
  T/C: 99 % of control
dose: 12.5 mg/kg/injection, schedule: Q04DX002 (ip), vehicle: saline with Tween-80
  T/C: 100 % of control
dose: 25.0 mg/kg/injection, schedule: Q04DX002 (ip), vehicle: saline with Tween-80
  T/C: 101 % of control

## CC(=O)NC(CCc1ccc(Cl)c(Cl)c1)c1cccc(O)c(=O)c1 (stereo not drawn)
dose: 12.5 mg/kg/injection, schedule: Q01DX009 (ip), vehicle: Klucel (hydroxypropylcellulose) (HPC)
  T/C: 105 % of control and 110 % of control
dose: 25.0 mg/kg/injection, schedule: Q01DX009 (ip), vehicle: Klucel (hydroxypropylcellulose) (HPC)
  T/C: 106 % of control and 122 % of control

## O=[N+]([O-])c1cc2c(c([N+](=O)[O-])c1)OC(C(Cl)(Cl)Cl)OC2C(Cl)(Cl)Cl (stereo not drawn)
[11]
  T/C: 107 % of control
[12]
  T/C: 103 % of control
[13]
  T/C: 117 % of control
